Consider 1 molecule from PMC12774351, “A lignan compound regulates LPS modifications via PmrA/B signaling cascades to potentiate colistin efficacy in vivo” (PLOS Pathogens, 2025).

The test concerns the target T1, PmrA (Salmonella enterica, UniProt A0A0F6BAF1).
T1 construct: gene basR
The test is described as follows: isothermal titration calorimetry. It is filed as binding. For orientation: In ITC the heat of successive injections is recorded.

T1 sequence (A0A0F6BAF1 entry or part of it): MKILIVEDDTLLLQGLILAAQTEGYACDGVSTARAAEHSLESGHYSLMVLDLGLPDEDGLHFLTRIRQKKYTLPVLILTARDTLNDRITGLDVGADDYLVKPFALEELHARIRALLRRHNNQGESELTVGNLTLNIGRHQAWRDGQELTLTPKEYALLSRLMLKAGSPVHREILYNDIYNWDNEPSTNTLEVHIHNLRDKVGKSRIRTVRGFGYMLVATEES

As a reminder, the Kd is the equilibrium constant for the complex coming apart. Molecule `C=CCc1ccc(O)c(-c2cc(CC=C)ccc2O)c1` [magnolol] yielded a Kd of 2000 nM.
